Results reported in patent publication US9434763B2, “Derivatives of pyridinone as inhibitors for tissue transglutaminase” (ZEDIRA GMBH, priority 2012, dated 2016).

Molecular target: T1, His tagged recombinant human tissue transglutaminase (His6-rh-TG2) (Homo sapiens, UniProt P21980)
T1 construct: purchased Zedira T002
T1 sequence (P21980 1-687): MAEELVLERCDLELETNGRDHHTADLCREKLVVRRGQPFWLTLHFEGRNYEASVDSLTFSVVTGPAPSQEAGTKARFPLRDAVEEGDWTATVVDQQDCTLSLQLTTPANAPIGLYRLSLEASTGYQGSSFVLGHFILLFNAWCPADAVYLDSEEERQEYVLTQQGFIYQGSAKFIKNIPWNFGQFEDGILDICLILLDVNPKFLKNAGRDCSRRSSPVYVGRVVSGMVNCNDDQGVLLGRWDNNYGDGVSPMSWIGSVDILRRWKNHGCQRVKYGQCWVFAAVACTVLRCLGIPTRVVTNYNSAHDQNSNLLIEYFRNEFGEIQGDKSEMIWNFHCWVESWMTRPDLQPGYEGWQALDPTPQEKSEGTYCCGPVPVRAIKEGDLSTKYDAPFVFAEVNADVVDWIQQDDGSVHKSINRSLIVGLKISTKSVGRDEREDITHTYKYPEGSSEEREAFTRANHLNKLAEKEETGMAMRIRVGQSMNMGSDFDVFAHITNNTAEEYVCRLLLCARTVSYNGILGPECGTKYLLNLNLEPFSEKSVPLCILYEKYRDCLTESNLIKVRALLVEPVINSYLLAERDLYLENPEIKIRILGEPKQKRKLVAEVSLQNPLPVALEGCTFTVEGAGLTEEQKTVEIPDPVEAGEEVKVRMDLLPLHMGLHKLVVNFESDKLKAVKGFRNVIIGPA
Assay: Inactivation of human tissue transglutaminase, fluorescence assay with Abz-APE(CAD-DNP)QEA-OH
Format: biochemical
Settings: substrate Abz-APE(CAD-DNP)QEA-OH, 37° C., pH=7.5
Description: General Method for Inactivation of Human Tissue Transglutaminase
250 μg lyophilized His tagged recombinant human tissue transglutaminase (His6-rh-TG2, Zedira product T002) are reconstituted by adding 150 μl water (resulting buffer 50 mM NaH2PO4, 150 mM NaCl, pH=8.0).
A 10 mM inhibitor stock solution in DMSO is prepared and is diluted with buffer (50 mM Tris-HCl, 10 mM CaCl2, 5 mM DTT, pH=7.5) each to the twentyfold of the concentration desired in the preparation (but at least 1/50 dilution resulting in a 2% DMSO concentration).
900 μl of an assay-solution consisting of 55.56 mM Tris, 11.11 mM CaCl2, 0.11% PEG8000, 5.56 mM DTT, 5.56 mM glycine methyl ester and 50 μM Abz-APE(CAD-DNP)QEA-OH, (Zedira product A102; patent No.: EP 1781807B1), pH=7.5 are added to a cuvette and heated in a measuring cell of a spectrophotometer to 37° C. 50 μl of the particular inhibitor solution are added to this solution (resulting in a concentration of less than 0.2% DMSO in the mixture).
7 μl of the transglutaminase solution reconstituted above are diluted with 51 μl buffer (50 mM Tris, 100 mM NaCl, 5 mM DTT, pH=7.5). 50 μl of this enzyme solution (10 μg His6-rhTG2) are added to the assay-solution containing the particular inhibitor concentration. It is incubated 5 min at 37° C. before measuring starts (λexc=313 nm and λem=418 nm, t=15 to 30 min).
The evaluation of the resulting enzyme activity is done using the slope of the straight line obtained by the increase in fluorescence.
To determine the non-inhibited enzyme activity, DMSO instead of inhibitor stock solution is used. IC50 values are determined by plotting the resulting enzyme activity against the logarithm of the inhibitor concentration. IC50 is defined as the concentration of inhibitor resulting in 50% of enzyme activity.

Row | Compound | IC50
1 | CC(=O)N[C@@H](CC/C=C/S(C)(=O)=O)C(=O)Nc1cccn(CC(=O)NCCC(C)C)c1=O [A77, (S,E)-2-acetamido-N-(1-(2-(isopentylamino)-2-oxoethyl)-2-oxo-1,2-dihydropyridin-3-yl)-6-(methylsulfonyl)hex-5-enamide] | 469 nM
2 | CCOC(=O)/C=C/CC[C@H](NS(=O)(=O)c1ccoc1)C(=O)Nc1cccn(CC(=O)NCCC(C)C)c1=O [A13, (S,E)-Ethyl 6-(furan-3-sulfonamido)-7-(1-(2-(isopentylamino)-2-oxoethyl)-2-oxo-1,2-dihydropyridin-3-ylamino)-7-oxohept-2-enoate] | 83 nM
3 | CCOC(=O)/C=C/CC[C@H](NC(=O)c1ccc(N2CCCCC2)cc1)C(=O)Nc1cccn(CC(=O)NCCC(C)C)c1=O [A18, (S,E)-Ethyl 7-(1-(2-(isopentylamino)-2-oxoethyl)-2-oxo-1,2-dihydropyridin-3-ylamino)-7-oxo-6-(4-(piperidin-1-yl)benzamido)hept-2-enoate] | 175 nM
4 | CCOC(=O)/C=C/CC[C@H](NC(C)=O)C(=O)Nc1ccc(C)n(CC(=O)NCCC(C)C)c1=O [A4, (S,E)-Ethyl 6-acetamido-7-(1-(2-(isopentylamino)-2-oxoethyl)-6-methyl-2-oxo-1,2-dihydropyridin-3-ylamino)-7-oxohept-2-enoate] | 119 nM
5 | CCOC(=O)/C=C/CC[C@H](NC(=O)c1ccc(S(N)(=O)=O)cc1)C(=O)Nc1cccn(CC(=O)NCCC(C)C)c1=O [A14, (S,E)-Ethyl 7-(1-(2-(isopentylamino)-2-oxoethyl)-2-oxo-1,2-dihydropyridin-3-ylamino)-7-oxo-6-(4-sulfamoylbenzamido)hept-2-enoate] | 137 nM
6 | CCOC(=O)/C=C/CC[C@H](NC(=O)c1cc(C(F)(F)F)cc(C(F)(F)F)c1)C(=O)Nc1cccn(CC(=O)NCCC(C)C)c1=O [A17, (S,E)-Ethyl 6-(3,5-bis(trifluoromethyl)benzamido)-7-(1-(2-(isopentylamino)-2-oxoethyl)-2-oxo-1,2-dihydropyridin-3-ylamino)-7-oxohept-2-enoate] | 63 nM
7 | CCOC(=O)/C=C/CC[C@H](NS(=O)(=O)c1ccc(O)c(C(=O)O)c1)C(=O)Nc1cccn(CC(=O)NCCC(C)C)c1=O [A23, (S,E)-5-(N-(7-Ethoxy-1-(1-(2-(isopentylamino)-2-oxoethyl)-2-oxo-1,2-dihydropyridin-3-ylamino)-1,7-dioxohept-5-en-2-yl)sulfamoyl)-2-hydroxybenzoic acid] | 475 nM
8 | CCOC(=O)/C=C/CC[C@H](NC(=O)CCC(=O)O)C(=O)Nc1cccn(CC(=O)NCc2ccccc2C(F)(F)F)c1=O [A44, (S,E)-4-(7-Ethoxy-1,7-dioxo-1-(2-oxo-1-(2-oxo-2-(2-(trifluoromethyl)benzylamino)ethyl)-1,2-dihydropyridin-3-ylamino)hept-5-en-2-ylamino)-4-oxobutanoic acid] | 240 nM
9 | CCOC(=O)/C=C/CC[C@H](NC(=O)OCc1ccccc1)C(=O)Nc1ccc(C)n(CC(=O)NCCC(C)C)c1=O [A2, (S,E)-Ethyl 6-(benzyloxycarbonylamino)-7-(1-(2-(isopentylamino)-2-oxoethyl)-6-methyl-2-oxo-1,2-dihydropyridin-3-ylamino)-7-oxohept-2-enoate] | 100 nM
10 | CCOC(=O)/C=C/CC[C@H](NC(=O)CCC(=O)O)C(=O)Nc1cccn(CC(=O)NCCN2CCNC2=O)c1=O [A49, (S,E)-4-(7-Ethoxy-1,7-dioxo-1-(2-oxo-1-(2-oxo-2-(2-(2-oxoimidazolidin-1-yl)ethylamino)ethyl)-1,2-dihydropyridin-3-ylamino)hept-5-en-2-ylamino)-4-oxobutanoic acid] | 1800 nM
11 | CCOC(=O)/C=C/CC[C@H](NC(=O)OCc1ccccc1)C(=O)Nc1cccn(CC(=O)NCCc2c(C)cc(C)cc2C)c1=O [A1, (S,E)-Ethyl 6-(benzyloxycarbonylamino)-7-oxo-7-(2-oxo-1-(2-oxo-2-(2,4,6-trimethylphenethylamino)ethyl)-1,2-dihydropyridin-3-ylamino)hept-2-enoate] | 100 nM
12 | CCOC(=O)/C=C/CC[C@H](NC(C)=O)C(=O)Nc1cccn(CC(=O)NCCN2CCCC2)c1=O [A46, (S,E)-Ethyl 6-acetamido-7-oxo-7-(2-oxo-1-(2-oxo-2-(2-(pyrrolidin-1-yl)ethylamino)ethyl)-1,2-dihydropyridin-3-ylamino)hept-2-enoate] | 3300 nM
13 | CCOC(=O)/C=C/CC[C@H](NS(=O)(=O)c1ccccc1)C(=O)Nc1cccn(CC(=O)NCCC(C)C)c1=O [A22, (S,E)-Ethyl 7-(1-(2-(isopentylamino)-2-oxoethyl)-2-oxo-1,2-dihydropyridin-3-ylamino)-7-oxo-6-(phenylsulfonamido)hept-2-enoate] | 133 nM
14 | CCOC(=O)/C=C/CC[C@H](NC(=O)CCC(=O)O)C(=O)Nc1cccn(CC(=O)NCCC(C)(C)C)c1=O [A38, (S,E)-4-(1-(1-(2-(3,3-Dimethylbutylamino)-2-oxoethyl)-2-oxo-1,2-dihydropyridin-3-ylamino)-7-ethoxy-1,7-dioxohept-5-en-2-ylamino)-4-oxobutanoic acid] | 175 nM
15 | CCOC(=O)/C=C/CC[C@H](NC(=O)c1cccnc1)C(=O)Nc1cccn(CC(=O)NCCC(C)C)c1=O [A16, (S,E)-Ethyl 7-(1-(2-(isopentylamino)-2-oxoethyl)-2-oxo-1,2-dihydropyridin-3-ylamino)-6-(nicotinamido)-7-oxohept-2-enoate] | 104 nM

More lines, now with the values ahead:

Row | IC50 | Compound
16 | 139 nM | CCOC(=O)/C=C/CC[C@H](NC(=O)CCNC(N)=O)C(=O)Nc1cccn(CC(=O)NCCC(C)C)c1=O [A56, (S,E)-Ethyl 7-(1-(2-(isopentylamino)-2-oxoethyl)-2-oxo-1,2-dihydropyridin-3-ylamino)-7-oxo-6-(3-ureidopropanamido)hept-2-enoate]
17 | 53 nM | CCC(CC)CNC(=O)Cn1cccc(NC(=O)[C@H](CC/C=C/C(=O)OC)NC(=O)C(C)N)c1=O (stereo partly drawn) [A68, (6S,E)-Methyl 6-(2-aminopropanamido)-7-(1-(2-(2-ethylbutylamino)-2-oxoethyl)-2-oxo-1,2-dihydropyridin-3-ylamino)-7-oxohept-2-enoate 2,2,2-trifluoroacetate]
18 | 81 nM | CCC(CC)CNC(=O)Cn1cccc(NC(=O)[C@H](CC/C=C/C(=O)OC)NC(=O)c2ccccc2N)c1=O [A70, (S,E)-Methyl 6-(2-aminobenzamido)-7-(1-(2-(2-ethylbutylamino)-2-oxoethyl)-2-oxo-1,2-dihydropyridin-3-ylamino)-7-oxohept-2-enoate 2,2,2-trifluoroacetate]
19 | 55 nM | CCC(CC)CNC(=O)Cn1cccc(NC(=O)[C@H](CC/C=C/C(=O)OC)NC(=O)c2cccnc2)c1=O [A67, (S,E)-Methyl 7-(1-(2-(2-ethylbutylamino)-2-oxoethyl)-2-oxo-1,2-dihydropyridin-3-ylamino)-6-(nicotinamido)-7-oxohept-2-enoate]
20 | 84 nM | CCOC(=O)/C=C/CC[C@H](NC(=O)c1ccsc1)C(=O)Nc1cccn(CC(=O)NCCC(C)C)c1=O [A12, (S,E)-Ethyl 7-(1-(2-(isopentylamino)-2-oxoethyl)-2-oxo-1,2-dihydropyridin-3-ylamino)-7-oxo-6-(thiophene-3-carboxamido)hept-2-enoate]
21 | 194 nM | CCOC(=O)/C=C/CC[C@H](NC(=O)CCC(=O)O)C(=O)Nc1cccn(CC(=O)N[C@@H](CC(C)C)C(=O)OC)c1=O [A32, 4-((S,E)-7-Ethoxy-1-(1-(2-((S)-1-methoxy-4-methyl-1-oxopentan-2-ylamino)-2-oxoethyl)-2-oxo-1,2-dihydropyridin-3-ylamino)-1,7-dioxohept-5-en-2-ylamino)-4-oxobutanoic acid]
22 | 153 nM | CCOC(=O)/C=C/CC[C@H](NC(C)=O)C(=O)Nc1cccn(CC(=O)NC(C)C(C)C)c1=O (stereo partly drawn) [A55, (6S,E)-Ethyl 6-acetamido-7-(1-(2-(3-methylbutan-2-ylamino)-2-oxoethyl)-2-oxo-1,2-dihydropyridin-3-ylamino)-7-oxohept-2-enoate]
